Tested on: Pseudomonas aeruginosa ATCC 15442
Test: Biofilm test on glass surfaces (microscope slides, SafraninO staining)
Type: cell-based
Details: 6 hours incubation; for biofilm reduction (relative to the control without active substance): first range finding experiments (FIG. 1)
Procedure: (b) Use of Alkyloxylactones for the Reduction of Biofilms on Glass Surfaces.
The germ Pseudomonas aeruginosa ATCC 15442 is cultivated at 37° C. on Caso-Agar overnight. A CFU (Colony Eorming Unit) of solid medium is incubated in 50 ml Caso-broth at 37° C. for 7 hours and 150 rpm (1. passage). 100 μl germs from the washed liquid culture are carried over into 50 ml fresh Caso-nutrient medium and incubated at 37° C. for approximately 16 hours and 150 rpm. (2. Passage). A germ count of 10^6 CFU/ml is used from this second passage in the biofilm test. For the biofilm test, the germs in the above-mentioned concentration, together with a diluted complete medium (20 times with DGHM-water diluted TBY), are pipetted into a micro-titration plate (6-position chamber), which is used as the miniaturized biofilm test system. The active substances under test are added in the desired concentration to the mixture (3 ml). As controls, first, attempts were made with active substances, but without germs, as the active substances could already have an inherent color (negative control); secondly, diluted complete medium with germs, but without the active substances were also used as controls. In addition, 1 sterile glass plate (microscope slide), size 18×18, on the surface of which the biofilm growth is investigated, is placed into each of the 6-position chambers. For each starting material, triple determinations are carried out, i.e. three glass slides are investigated per starting material. The 6-position plates are shaken for 6 or 24 hours at 30° C. and 60 rpm. After the predetermined incubation times, 1 ml per starting material are removed for germ count determination, diluted in trypton-NaCl solution and plated out on Caso-Agar. The resulting plates are incubated for 24 hours at 37° C. and then counted. The slide glasses are taken out of the 6-positions to be dried at room temperature and then dyed in new 6-positions with 3 ml 0.01% SafraninO-solution (made up in sterile water) for 15 minutes. The colorant solution is then siphoned off, non-bound colorant is removed with water from the slide glasses and the colored slide glasses dried. The colored and dried surfaces of the slide glasses are scanned and evaluated using Corel Draw paint 9. In order to be able to subtract the background value (of the glass) from the measured value, additional untreated slide glasses are also scanned.

[1] = 50 ppm and 100 ppm, control without active substance = 100% (FIG. 1)
[2] = 100 ppm, DMSO control = 100% (FIG. 2)

CCCCOC1C(=O)OCC1(C)C (stereo not drawn) [Example H123, butyloxypantolactone]
effect on biofilm formation [1]: only a moderate effect

CCCCCCCCO[C@H]1C(=O)OCC1(C)C [Example H33, a-Octyloxy-D-(−)-pantolactone]
biofilm reduction (relative to the control without active substance) (100 ppm): more than 30%

CCCCCCCCCCCCCCCCOC1CCOC1=O (stereo not drawn) [hexadecylbutyrolactone, a-hexadecyloxy-γ-butyrolactone]
effect on biofilm formation [2]: best biofilm reduction

CCCCOC1CCOC1=O (stereo not drawn) [Example H99, butyloxybutyrolactone]
effect on biofilm formation [1]: only a moderate effect

CCCCCCCCOC1CCOC1=O (stereo not drawn) [Example H128, a-Octyloxy-γ-butyrolactone]
biofilm reduction (relative to the control without active substance) (100 ppm): approximately 40% | reduction in biofilm inhibition (on increasing the concentration of active substance, it precipitated out, result not shown): 20%

CC1(C)COC(=O)C1O (stereo not drawn) [pantolactone, Pantolactone, reference compound]
effect on biofilm formation [2]: did not show any notable effect

O=C1OCCC1O (stereo not drawn) [hydroxybutyrolactone, Hydroxybutyrolactone, reference compound]
effect on biofilm formation [2]: did not show any notable effect

CCCCCCCOC1C(=O)OCC1(C)C (stereo not drawn) [Example 188, Heptyloxypantolactone]
biofilm reduction (with respect to the DMSO control) [2]: more than 40%
